What was measured:
Assay type in all cases: cell-based, mouse
[1] = tested on: NF-κB; experiment: NF-κB activation measured by IκB-α phosphorylation/degradation in osteoclasts and dendritic cells (Western blot); settings: osteoclasts and dendritic cells (FIGS. 2A and 2B), inhibitor 10 μM, TRANCE 1 μg/ml
Method: (§1) FIG. 1. […] (A) Mature bone marrow-derived osteoclasts were stimulated for the indicated times with recombinant hCD8-TRANCE (TRANCE; 1 μg/ml). Levels of phosphorylated forms of p44/p42 ERK (p44 ERK^P and p42 ERK^P), IκBα (IκB-α^P) and PKB (PKB^P) in whole cell extracts were determined using phospho-peptide-specific antibodies as indicated in the figure. […] (B) as in (A) except the use of mature bone marrow-derived dendritic cells instead of osteoclasts.
(§2) FIG. 2. […] (A) Osteoclasts were serum starved and then pretreated for 90 min with LY294002 (10 μM), Herbimycin A (Herb. A; 10 μM), and PP1 (10 μM) inhibitors which are specific for PI3-kinase, PTKs, and Src-family kinases, respectively, were stimulated for indicated times with TRANCE (1 μg/ml). Levels of phosphorylated p44/p42 ERK, PKB, and IκB-α were determined as described in FIG. 1. Cells pretreated with vehicle (DMSO) were used as a negative control. (B) as in (A) except the use of mature bone marrow-derived dendritic cells.
(§3) Primary cells and cell lines. […] In brief, bone marrow cells from tibiae and femur of 4-6 week old mice (C57BL/6, Jackson Laboratories) were cultured overnight in media (α-MEM, 10% FCS) in the presence of CSF-1 (5 ng/ml). […] For experiments described in this study, only adherent cells were used after extensive washing. […] After allowing them adhere for 2 hours to a tissue culture dish, contaminating floater cells were washed away and mature dendritic cells were obtained by overnight culture.
Cell stimulation, cell transfection and in vitro assays. In vitro differentiated mature dendritic cells, macrophages and osteoclasts were washed to remove exogenous growth factors, cultured in media with low serum (0.5% FCS, 6 hours), then stimulated by adding various cytokines in the presence or absence of inhibitors for various times as indicated. After stimulation, the cells were washed in ice-cold PBS, and subjected to Western blot analysis or immunoprecipitation as described below. […]

[2] = tested on: PKB; experiment: PKB activation in osteoclasts (phospho-PKB Western blot); settings: for TRANCE-induced PKB activation (phosphorylated form of PKB): osteoclasts pretreated 90 min with inhibitor 10 μM, then TRANCE 1 μg/ml
Method: as §1, §2, §3
Cell stimulation, cell transfection and in vitro assays. In vitro differentiated mature dendritic cells, macrophages and osteoclasts were washed to remove exogenous growth factors, cultured in media with low serum (0.5% FCS, 6 hours), then stimulated by adding various cytokines in the presence or absence of inhibitors for various times as indicated. After stimulation, the cells were washed in ice-cold PBS, and subjected to Western blot analysis or immunoprecipitation as described below.
All cells were harvested and lysed in extraction buffer (20 mM HEPES NaOH (pH 7.4), 150 mM NaCl, 1% Triton X-100, 10% glycerol, 10 mM EDTA, 1 mM Na3VO4, 1 mM phenylmethylsulfonylfluoride, 1 μg/ml leupeptin, and 0.1 U of aprotinin per ml) and cleared by centrifugation to obtain whole cell extracts. Protein assays were performed to ensure equal amounts of lysates were used in each sample.

[3] = tested on: PKB; experiment: PKB activation in dendritic cells (phospho-PKB Western blot)
Method: FIG. 1. TRANCE activates p44/42 ERK, NF-κB and PKB in osteoclasts and dendritic cells. (A) Mature bone marrow-derived osteoclasts were stimulated for the indicated times with recombinant hCD8-TRANCE (TRANCE; 1 μg/ml). Levels of phosphorylated forms of p44/p42 ERK (p44 ERK^P and p42 ERK^P), IκBα (IκB-α^P) and PKB (PKB^P) in whole cell extracts were determined using phospho-peptide-specific antibodies as indicated in the figure. The membranes were stripped and incubated with antibodies against the p44/p42 ERK, IκB-α, and PKB as indicated to confirm that similar amounts of whole cell extracts were analyzed. Note the decrease of IκB-α after 10 min of treatment due to its degradation. (B) as in (A) except the use of mature bone marrow-derived dendritic cells instead of osteoclasts.
FIG. 2. TRANCE-induced PKB activation in osteoclasts and dendritic cells is blocked by inhibitors of PI3-kinase, tyrosine kinases and Src family kinases. (A) Osteoclasts were serum starved and then pretreated for 90 min with LY294002 (10 μM), Herbimycin A (Herb. A; 10 μM), and PP1 (10 μM) inhibitors which are specific for PI3-kinase, PTKs, and Src-family kinases, respectively, were stimulated for indicated times with TRANCE (1 μg/ml). Levels of phosphorylated p44/p42 ERK, PKB, and IκB-α were determined as described in FIG. 1. Cells pretreated with vehicle (DMSO) were used as a negative control. (B) as in (A) except the use of mature bone marrow-derived dendritic cells.
FIG. 6. Cytokine receptors that engage TRAF6 activate PKB through Src-family kinases. (A) Dendritic cells were treated with TNF (10 ng/ml), TRANCE (5 μg/ml), LPS (50 μg/ml), or IL-1α (20 ng/ml) for the indicated times (min). The activation of PKB was determined in whole cell extracts using a phospho-PKB-specific antibody as described in FIG. 1. (B) Dendritic cells were pretreated with vehicle (DMSO) or the Src-family kinase inhibitor, PP1 (10 μM) for 90 minutes followed by a 15 minute treatment with TRANCE (5 μg/ml), LPS (50 μg/ml), or IL-1α (20 ng/ml) or no treatment at all (−). The activation of PKB was determined as described in FIG. 1.
Primary cells and cell lines. Osteoclasts and macrophages were generated from bone marrow precursors as described (Wani, et al., Endocrinology, 140:[…], 1999). In brief, bone marrow cells from tibiae and femur of 4-6 week old mice (C57BL/6, Jackson Laboratories) were cultured overnight in media (α-MEM, 10% FCS) in the presence of CSF-1 (5 ng/ml). After 24 hours, non-adherent cells were harvested, washed, and further cultured in media with CSF-1 (50 ng/ml) plus TRANCE (10 ng/ml) to develop osteoclasts, or with CSF-1 alone to develop macrophages. Using these conditions, after 4 days of culture, greater than 95 percent of the adherent cells were osteoclasts or macrophages. For experiments described in this study, only adherent cells were used after extensive washing. Mature dendritic cells were generated from bone marrow precursors of 4-6 week old female C57BL/6 mice (C57BL/6, Jackson Laboratories) cultured in media (RPMI1640, 5% FBS) and GM-CSF (1:30 cultured supernatant from the J558 cell line, a gift from Dr. R. M. Steinman, The Rockefeller University) for 8 days as previously described (Inaba, et al., J. Exp. Med., 176:1693-1702, 1992). To generate osteoclasts and dendritic cells from c-Src deficient mice, spleen cells, which contain hematopoietic precursors due to extramedullary hematopoeisis, were substituted for bone marrow cells as previously described (Schwartzberg, et al., Genes Dev., 11:2835-2844, 1997). Mature spleen-derived dendritic cells were isolated from spleens treated with collagenase (40 U/ml; Boehinger Mannheim) and subjected to a Nycodenz centrifugation gradient (14.5%; Nycomed) to obtain low density cells. After allowing them adhere for 2 hours to a tissue culture dish, contaminating floater cells were washed away and mature dendritic cells were obtained by overnight culture.
Cell stimulation, cell transfection and in vitro assays. […]

[4] = tested on: osteoclasts; experiment: Osteoclast differentiation with TRANCE plus CSF-1 (TRAP solution assay); settings: TRANCE 100 ng/ml plus CSF-1 50 ng/ml; LY294002 200 nM and 800 nM
Method: FIG. 3. c-Src is required for TRANCE-induced PKB activation and osteoclast survival. (A) c-Src was immunoprecipitated from osteoclasts, dendritic cells and macrophages stimulated with TRANCE (1 μg/ml) for the indicated times using an anti-c-Src-specific monoclonal antibody (327). PTK activity of the c-Src immunprecipitates were measured in vitro using SAM68, a PTK specific substrate. The degree of SAM68 phosphorylation was determined by Western blot analysis using an anti-phospho-tyrosine antibody (4G10) and densitometry. Note that c-Src kinase activity was not detectable in TRANCE-treated macrophages most likely due to low levels of c-Src in these cells (Lacey, et al., supra, 1998). (B) Osteoclasts derived from wild type and c-Src deficient mice were stimulated with TRANCE (5 μg/ml) for 10 min and the levels of phosphorylated PKB (PKB^P), total PKB, and total IκBα were determined as in FIG. 1. (C) Osteoclasts from wild-type (open bars) and c-Src deficient (solid bars) mice were washed and then cultured for an additional 24 hours in media alone (Medium) or in media with TRANCE (5 μg/ml) or CSF-1 (10 ng/ml). TRAP solution assays were performed and percent survival calculated. The experiment was performed in triplicate and the mean values with positive standard deviations are shown. […] Osteoclasts were detected by TRAP solution assays. […]

[5] = tested on: mature osteoclasts; experiment: Osteoclast survival assay (TRAP solution assay); settings: 24 hours; TRANCE 5 μg/ml or CSF-1 10 ng/ml
Method: TRAP solution assays were performed and percent survival calculated. The experiment was performed in triplicate and the mean values with positive standard deviations are shown. […] (E) Mature osteoclasts were washed extensively and then cultured for an additional 24 hr in media without (−) or with TRANCE (5 μg/ml; +) in the absence or presence of increasing doses (200 nM and 800 nM) of LY294002. TRAP solution assays were performed and percent survival was as described in Experimental Procedures. The experiment was performed in triplicate and the mean values with positive standard deviations are shown.
Osteoclast survival assays. In vitro differentiated mature osteoclasts were washed 3 times in media then further cultured for 24 hr in media alone (control) or in media with TRANCE (5 μg/ml) or CSF-1 (10 ng/ml) in the presence or absence of LY294002 as indicated.
Specific cell survival (%)=(A405, 24 hr−A405. background)*100/(A405, 0 hr−A405, background)

With CO[C@H]1[C@@H](OC)C[C@H](C)[C@@H](OC)C2=CC(=O)C=C(NC(=O)/C(C)=C/C=C\[C@H](OC)[C@@H](OC(N)=O)/C(C)=C/[C@@H]1C)C2=O [herbimycin A, reference compound] the “NF-κB activation as measured by IκB-α degradation” value [1] was “neither LY294002, herbimycin A, nor PP1 significantly affected” and the “TRANCE-induced PKB activation (phosphorylated form of PKB)” value [2] was “blocked”.

For Cc1ccc(-c2nn(C(C)(C)C)c3ncnc(N)c23)cc1 [PP1, reference compound], the “NF-κB activation as measured by IκB-α degradation” value [1] was “neither LY294002, herbimycin A, nor PP1 significantly affected”, the “TRANCE-induced PKB activation (phosphorylated form of PKB)” value [2] was “blocked” and the “TRANCE-induced PKB activation (phosphorylated form of PKB)” value ([3]; dendritic cells pretreated 90 min with inhibitor 10 μM, then TRANCE 1 μg/ml) was “inhibited”. For the same molecule, the “activation of PKB by IL-1α” value ([3]; dendritic cells pretreated with PP1 10 μM 90 minutes, then IL-1α 20 ng/ml 15 minutes) was “inhibited” and the “activation of PKB by LPS” value ([3]; dendritic cells pretreated with PP1 10 μM 90 minutes, then LPS 50 μg/ml 15 minutes) was “inhibited”.

COc1cccc(-c2cc(=O)c3ccccc3o2)c1N [PD98059, reference compound] was tested, and the “TRANCE-induced PKB activation” value ([2]; MEK inhibitor, cell type not stated (osteoclasts and dendritic cells studied), data not shown) was “failed to inhibit”.

For O=c1cc(N2CCOCC2)oc2c(-c3ccccc3)cccc12 [LY294002], the osteoclast differentiation [4] was “did not inhibit”.

B1: CSF-1: recombinant CSF-1 purchased from R&D Systems (protein, UniProt P09603 33-554, looked up)
Macrophage colony-stimulating …: EEVSEYCSHMIGSGHLQSLQRLIDSQMETSCQITFEFVDQEQLKDPVCYLKKAFLLVQDIMEDTMRFRDNTPNAIAIVQLQELSLRLKSCFTKDYEEHDKACVRTFYETPLQLLEKVKNVFNETKNLLDKDWNIFSKNCNNSFAECSSQDVVTKPDCNCLYPKAIPSSDPASVSPHQPLAPSMAPVAGLTWEDSEGTEGSSLLPGEQPLHTVDPGSAKQRPPRSTCQSFEPPETPVVKDSTIGGSPQPRPSVGAFNPGMEDILDSAMGTNWVPEEASGEASEIPVPQGTELSPSRPGGGSMQTEPARPSNFLSASSPLPASAKGQQPADVTGTALPRVGPVRPTGQDWNHTPQKTDHPSALLRDPPEPGSPRISSLRPQGLSNPSTLSAQPQLSRSHSSGSVLPLGELEGRRSTRDRRSPAEPEGGPASEGAARPLPRFNSVPLTDTGHERQSEGSFSPQLQESVFHLLVPSVILVLLAVGGLLFYRWRRRSHQEPQRADSPLEQPEGSPLTQDDRQVELPV
For B1, the “cytokine-promoted survival in c-Src−/− osteoclasts compared to wild-type” value [5] was “not reduced”.

B2: IL-1α: recombinant IL-1 purchased from R&D Systems (protein, UniProt P01583 113-271, looked up)
Interleukin-1 alpha: SAPFSFLSNVKYNFMRIIKYEFILNDALNQSIIRANDQYLTAAALHNLDEAVKFDMGAYKSSKDDAKITVILRISKTQLYVTAQDEDQPVLLKEMPEIPKTITGSETNLLFFWETHGTKNYFTSVAHPNLFIATKQDYWVCLAGGPPSITDFQILENQA
B2 was tested, and the “PKB activation in dendritic cells stimulated with cytokine” value ([3]; TNF 10 ng/ml, TRANCE 5 μg/ml, LPS 50 μg/ml, IL-1α 20 ng/ml, CD40L data not shown) was “activated”.

Source: patent US6492124B1, “Trance activated signal transduction pathways in osteoclasts” (The Rockefeller University, priority 1999, dated 2002)
